Results as given in publication PMC8305768, “Design, Synthesis and Antiparasitic Evaluation of Click Phospholipids” (Molecules, 2021).
Counter-ions that a name gives are not always drawn.

Key:
WI-38 cells = assay: Cytotoxicity assay WI-38 (CellTiter-Glo); format: cell-based; settings: compounds 10 μM; miltefosine 10 μM or 1 μM
Excerpt: (§1) Early ADMET profiling: The early ADMET profiling of the new derivatives involved a group of assays widely used in drug development as part of the preclinical in vitro toxicity studies. In particular our panel included hERG inhibition, five cytochromes P450 (CYP1A2, CYP2C9, CYP2C19, CYP2D6 and CYP3A4), two cell-lines (A549, epithelial human lung adenocarcinoma, WI38 and foetal lung fibroblasts), Aurora B kinase and mitochondrial toxicity, in addition to the parasite relevant toxicity against THP1 macrophages. The compounds were tested at 10 μΜ, whilst the miltefosine control was tested at 10 μΜ or 1 μM. The toxicity of the new click phospholipids is depicted in Figure 3 in a traffic light format (from red through yellow to green for decreasing ADMET liabilities).
(§2) Cytotoxicity assay: A549 cells and WI-38 cells were grown on surface-modified T175 cell culture flasks in Dulbecco’s modified Eagle medium with 10% foetal calf serum (FCS), streptomycin (100 μg/mL) and 100 U/mL penicillin G. At about 80% confluency, cells were washed, trypsinized, resuspended and counted in RPMI-1640 medium before seeding (in triplicate) into white 384-well microtiter plates (20 μL) at 500 cells/well and incubated at 37 °C in the presence of 5% CO2 for 24 h. A total of 20 μL/well of CellTiter-Glo (CTG) reagent (Promega Corp., Madison, WI, USA) was added to each well, and plates were read using an EnVision Multilabel 2103 Reader after a 10-min incubation in the dark. Dose–response assays for compounds made use of 11-point curves. Each test compound (200 nL of 10 mM top concentration in 100% v/v DMSO) was added to cells seeded in polystyrene 384-well cell culture microtiter plates using the Echo 550 Liquid Handler and read after 24 h of incubation at 37 °C in the presence of 5% CO2 using CTG as described above. The compounds/positive control (paclitaxel with final concentration of 10 μM and 1% v/v DMSO) and no compound (final 1% v/v DMSO) were added into the 384-well plates (200 nL/well; 1% v/v DMSO) using the Echo 550 Liquid Handler. The raw luminescence signal of each sample was converted into the percentage of cell growth.

CYP2C9 = target: T1, CYP2C9 (Homo sapiens, UniProt P11712); assay: Cytochrome P450 inhibition assay (P450-Glo) CYP2C9; format: in vitro ADME; settings: compounds 10 μM; miltefosine 10 μM or 1 μM
T1 construct: purchased Corning Inc; host or cells: baculovirus-infected insect cells
Excerpt: (§3) Cytochrome (CYP) P450 inhibition assay: These assays made use of microsomal preparations of CYP450 (1A2, 2C9, 2C19, 2D6 and 3A4) from baculovirus-infected insect cells (Corning Inc., Corning, NY, USA) and cytochrome c reductase (and cytochrome b5 for CYP450 3A4). For detection of CYP450 activity, the luminescence-based P450-Glo (Promega Corp., Madison, WI, USA) assay system was used that contained a luminogenic CYP450 substrate, lyophilized luciferin detection reagent and reconstitution buffer. The substrates were luciferin derivatives of CYP450-specific substrates that produce (4S)-4,5-dihydro-2-(6-hydroxybenzothiazolyl)-4-thiazolecarboxylic acid (D-luciferin) after cleavage by CYP450 (CYP450 3A4, luciferin-IPA; CYP450 2C19, luciferin-H EGE; CYP450 2C9, luciferin-H; CYP450 2D6, luciferin-ME EGE; CYP450 1A2, luciferin-1A2). CYP450 reactions were initiated by addition of the NADPH regeneration system to the enzyme–substrate mixture with the luciferin detection reagent stopping the reaction and the D-luciferin being converted to oxyluciferin under the production of light being proportional to the CYP450 activity. The CYP450 assays were performed using the Tecan Fluent liquid-handling automation platform (Tecan Group Ltd., Mannedorf, Switzerland) in the 384-well assay format. Compounds were added into an empty 384-well plate (100 nL/well in 1% v/v DMSO) using the Echo 550 Liquid Handler followed by the addition of 5 μL/well of the CYP450/substrate mixture and incubation for 30 min at 37 °C, after which the reaction was initiated by the addition of the 5 μL/well NADPH regeneration system. After a further 30-min incubation at 37 °C, the CYP450 reaction was stopped and the luciferase reaction was simultaneously initiated by addition of 10 μL/well of luciferin detection reagent, followed by an additional 30-min incubation at 37 °C. The luminescence signal was detected using an Infinite M1000 PRO plate reader (Tecan Group Ltd., Mannedorf, Switzerland). The NCs yielded 0% inhibition (1% v/v DMSO) and standard CYP450 specific inhibitors were used as positive controls, yielding 100% inhibition (CYP450 1A2, alpha-naphthoflavone; CYP450 2C9, sulfaphenazole; CYP450 2C19, troglitazone; CYP450 2D6, quinidine; CYP450 3A4, ketoconazole).
(§4) Data analysis: The screening data were obtained in triplicate and analysed using ActivityBase (IDBS, Guildford, UK), and outlier elimination in the control wells was performed using the 3-sigma method. Unless stated, dose–response experiments were performed in the 11-point format with the IC50 value, Hill slope, minimum signal and maximum signal for each dose–response curve obtained using a four-parameter logistic fit in the XE module of ActivityBase (IDBS).

[1] = Early ADMET profiling panel, overall; settings: 10 μM; except for toxicity against THP1 macrophages
Excerpt: as §1, §2
as §3, with “After a further 30-min incubation at 37 °C, the CYP450 reaction was stopped and the luciferase reaction was simultaneously initiated by addition of 10 μL/well of luciferin detection reagent, followed by an additional 30-min incubation at 37 °C. The luminescence signal was detected using an Infinite M1000 PRO plate reader (Tecan Group Ltd., Mannedorf, Switzerland). The NCs yielded 0% inhibition (1% v/v DMSO) and standard CYP450 specific inhibitors were used as positive controls, yielding 100% inhibition (CYP450 1A2, alpha-naphthoflavone; CYP450 2C9, sulfaphenazole; CYP450 2C19, troglitazone; CYP450 2D6, quinidine; CYP450 3A4, ketoconazole).” left out

CYP2D6 = target: T2, CYP2D6 (Homo sapiens, UniProt P10635); assay: Cytochrome P450 inhibition assay (P450-Glo) CYP2D6; format: in vitro ADME; settings: compounds 10 μM; miltefosine 10 μM or 1 μM
T2 construct: purchased Corning Inc; host or cells: baculovirus-infected insect cells
Excerpt: as §3, §4

T2 sequence (P10635 whole entry): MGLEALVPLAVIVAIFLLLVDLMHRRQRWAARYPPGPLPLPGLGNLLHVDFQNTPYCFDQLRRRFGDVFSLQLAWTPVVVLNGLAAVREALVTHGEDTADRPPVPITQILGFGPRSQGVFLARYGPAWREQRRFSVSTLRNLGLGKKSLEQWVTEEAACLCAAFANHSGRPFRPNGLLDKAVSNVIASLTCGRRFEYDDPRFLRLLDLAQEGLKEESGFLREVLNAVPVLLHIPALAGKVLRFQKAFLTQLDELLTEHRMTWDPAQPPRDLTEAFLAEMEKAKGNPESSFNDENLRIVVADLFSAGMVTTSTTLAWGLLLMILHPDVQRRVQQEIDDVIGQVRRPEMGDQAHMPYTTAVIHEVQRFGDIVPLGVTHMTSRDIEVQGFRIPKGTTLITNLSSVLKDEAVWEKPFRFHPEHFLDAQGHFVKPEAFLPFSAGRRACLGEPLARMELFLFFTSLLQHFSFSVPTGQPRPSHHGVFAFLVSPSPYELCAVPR
T1 sequence (P11712 whole entry): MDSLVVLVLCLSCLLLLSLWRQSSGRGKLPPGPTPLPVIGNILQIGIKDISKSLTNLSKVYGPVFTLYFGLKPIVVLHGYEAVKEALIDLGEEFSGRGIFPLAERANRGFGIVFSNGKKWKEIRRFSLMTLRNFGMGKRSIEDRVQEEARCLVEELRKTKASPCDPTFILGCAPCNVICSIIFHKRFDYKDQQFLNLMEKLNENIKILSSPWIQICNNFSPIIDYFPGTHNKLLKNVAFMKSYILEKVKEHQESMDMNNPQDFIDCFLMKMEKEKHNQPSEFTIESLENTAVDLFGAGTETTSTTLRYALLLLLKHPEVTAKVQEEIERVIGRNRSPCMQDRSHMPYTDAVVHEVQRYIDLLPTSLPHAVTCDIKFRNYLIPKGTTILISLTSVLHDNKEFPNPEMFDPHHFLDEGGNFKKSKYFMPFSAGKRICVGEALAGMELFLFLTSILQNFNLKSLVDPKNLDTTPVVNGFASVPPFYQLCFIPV

Row | Structure (SMILES) | % cell growth ± SD at 10 μΜ W1-38 (WI-38 cells) [%] | % inhibition ± SD at 10 μΜ CYP2C9 (CYP2C9) | ADMET liabilities (overall panel) [1] | % inhibition ± SD at 10 μΜ CYP2D6 (CYP2D6)
1 | C[N+](C)(C)CCOP(=O)([O-])OCCCCCn1cc(CCCCCCCCN)nn1 [Compound 35, 5-(4-(8-aminooctyl)-1H-1,2,3-triazol-1-yl)pentyl (2-(trimethylammonio)ethyl) phosphate inner salt] | 119.10 | 2.57% | no liabilities | 7.26%
2 | CCCCCCCc1nnc(CCCCCCCCCCOP(=O)([O-])OCC[N+](C)(C)C)o1 [Compound 65, 10-(5-heptyl-1,3,4-oxadiazol-2-yl)decyl (2-(trimethylammonio)ethyl) phosphate inner salt] | 77.74 | 28.32% | no liabilities | –30.44%
3 | C[N+](C)(C)CCOP(=O)([O-])OCCCCCn1cc(CCCCCCCCNC(=O)OCc2ccccc2)nn1 [Compound 31, 5-(4-(8-(((benzyloxy)carbonyl)amino)octyl)-1H-1,2,3-triazol-1-yl)pentyl (2-(trimethylammonio)ethyl) phosphate inner salt] | 123.63 | 8.95% | no liabilities | 11.06%
4 | C[N+](C)(C)CCOP(=O)([O-])OCCCCCCCCCCCn1cc(CC2CCCCC2)nn1 [Compound 29, 11-(4-(cyclohexylmethyl)-1H-1,2,3-triazol-1-yl)undecyl (2-(trimethylammonio)ethyl) phosphate inner salt] | 92.93 | –22.63% | no liabilities | –46.97%
5 | CCCCCc1cn(CCCCCCCCCCCOP(=O)([O-])OCC[N+](C)(C)C)nn1 [Compound 25, 11-(4-pentyl-1H-1,2,3-triazol-1-yl)undecyl (2-(trimethylammonio)ethyl) phosphate inner salt] | 93.46 | –23.11% | no liabilities | –37.71%
6 | C[N+](C)(C)CCOP(=O)([O-])OCCCCCCCCCCCn1cc(CC2CCCC2)nn1 [Compound 28, 11-(4-(cyclopentylmethyl)-1H-1,2,3-triazol-1-yl)undecyl (2-(trimethylammo nio)ethyl) phosphate inner salt] | 114.04 | –23.46% | no liabilities | –56.57%
7 | C[N+](C)(C)CCCOP(=O)([O-])OCCCCCCCCCCCn1cc(CC2CCCCC2)nn1 [Compound 33, 11-(4-(cyclohexylmethyl)-1H-1,2,3-triazol-1-yl)undecyl (3-(trimethylammonio)propyl) phosphate inner salt] | 136.32 | 19.72% | no liabilities | 9.87±6.48%
8 | CCCCCCCCCCCCCCCCOP(=O)([O-])OCC[N+](C)(C)C [Miltefosine, hexadecylphosphocholine, reference compound] | 113.50 | –0.80% |  | 30.83%
9 | CCCCCCCCc1noc(CCCCCOP(=O)([O-])OCC[N+](C)(C)C)n1 [Compound 53, 5-(3-octyl-1,2,4-oxadiazol-5-yl)pentyl (2-(trimethylammonio)ethyl) phosphate inner salt] | 83.83 | 5.45% | no liabilities | –26.41%
10 | CCCCCCCCc1noc(CCCCCCCCCCOP(=O)([O-])OCC[N+](C)(C)C)n1 [Compound 54, 10-(3-octyl-1,2,4-oxadiazol-5-yl)decyl (2-(trimethylammonio)ethyl) phosphate inner salt] |  |  |  | 6.07%
11 | C[N+](C)(C)CCOP(=O)([O-])OCCCCCCCCCCCn1cc(CCCCCCCCC(=O)O)nn1 [Compound 34, 11-(4-(8-carboxyoctyl)-1H-1,2,3-triazol-1-yl)undecyl (2-(trimethylammonio)ethyl) phosphate inner salt] |  | 18.94% | no liabilities | 23.08%
